Experimental data: US20110071108A1, “Beta-Cyclodextrin Derivatives as Antibacterial Agents” (Pinnacle Pharmaceuticals, Inc., priority 2005, published 2011)

Key:
[1] = system: Lungs cancer cells A549; test: Mammalian cytotoxicity
[2] = system: Pseudomonas aeruginosa; test: Bacterial panel testing, MIC by broth microdilution; type: cell-based; conditions: 20-24 hours growth
In short: (§1)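 Read-out: clear (no-growth) wells scored after 20-24 h growth to define compound potency. Inoculum was McFarland-matched bacteria from 2-4 h cultures at 37° C in strain-appropriate Mueller-Hinton or Brain Heart infusion media. Compound (10 μg/ml DMSO stock) was serially diluted twofold across plate columns.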

[3] = system: Salmonella choleraesuis; test: as above; type: cell-based; conditions: 20-24 hours growth
In short: as §1

Row | SMILES | Mammalian Cytotoxicity IC50 [1] | MIC PA [2] | MIC SC [3]
1 | O[C@@H]1[C@@H](O)[C@H]2O[C@H]3[C@H](O)[C@@H](O)[C@@H](O[C@H]4[C@H](O)[C@@H](O)[C@@H](O[C@H]5[C@H](O)[C@@H](O)[C@@H](O[C@H]6[C@H](O)[C@@H](O)[C@@H](O[C@H]7[C@H](O)[C@@H](O)[C@@H](O[C@H]8[C@H](O)[C@@H](O)[C@@H](O[C@@H]1[C@@H](CNCc1ccccc1)O2)O[C@@H]8CNCc1ccccc1)O[C@@H]7CNCc1ccccc1)O[C@@H]6CNCc1ccccc1)O[C@@H]5CNCc1ccccc1)O[C@@H]4CNCc1ccccc1)O[C@@H]3CNCc1ccccc1 | 840 µg/mL | >200 µg/mL | 
2 | CCCCCCCCNC[C@H]1O[C@@H]2O[C@H]3[C@H](O)[C@@H](O)[C@@H](O[C@H]4[C@H](O)[C@@H](O)[C@@H](O[C@H]5[C@H](O)[C@@H](O)[C@@H](O[C@H]6[C@H](O)[C@@H](O)[C@@H](O[C@H]7[C@H](O)[C@@H](O)[C@@H](O[C@H]8[C@H](O)[C@@H](O)[C@@H](O[C@H]1[C@H](O)[C@H]2O)O[C@@H]8CNCCCCCCCC)O[C@@H]7CNCCCCCCCC)O[C@@H]6CNCCCCCCCC)O[C@@H]5CNCCCCCCCC)O[C@@H]4CNCCCCCCCC)O[C@@H]3CNCCCCCCCC | 123 µg/mL | >200 µg/mL | 
3 | OC1C2OC(CNC3CCNCC3)C(OC3OC(CNC4CCNCC4)C(OC4OC(CNC5CCNCC5)C(OC5OC(CNC6CCNCC6)C(OC6OC(CNC7CCNCC7)C(OC7OC(CNC8CCNCC8)C(OC8OC(CNC9CCNCC9)C(O2)C(O)C8O)C(O)C7O)C(O)C6O)C(O)C5O)C(O)C4O)C(O)C3O)C1O (stereo not shown) | 378 µg/mL | >200 µg/mL | >200 µg/mL
4 | Cc1ccc(CNCC2OC3OC4C(CNCc5ccc(C)cc5)OC(OC5C(CNCc6ccc(C)cc6)OC(OC6C(CNCc7ccc(C)cc7)OC(OC7C(CNCc8ccc(C)cc8)OC(OC8C(CNCc9ccc(C)cc9)OC(OC9C(CNCc%10ccc(C)cc%10)OC(OC2C(O)C3O)C(O)C9O)C(O)C8O)C(O)C7O)C(O)C6O)C(O)C5O)C(O)C4O)cc1 (stereo not shown) | 376 µg/mL | >200 µg/mL | >200 µg/mL
5 | C[C@@H](NCC1OC2OC3C(CN[C@H](C)c4ccccc4)OC(OC4C(CN[C@H](C)c5ccccc5)OC(OC5C(CN[C@H](C)c6ccccc6)OC(OC6C(CN[C@H](C)c7ccccc7)OC(OC7C(CN[C@H](C)c8ccccc8)OC(OC8C(CN[C@H](C)c9ccccc9)OC(OC1C(O)C2O)C(O)C8O)C(O)C7O)C(O)C6O)C(O)C5O)C(O)C4O)C(O)C3O)c1ccccc1 (stereo partly shown) | 105 µg/mL | >200 µg/mL | 
6 | OC1C2OC(CNC3CCCCC3)C(OC3OC(CNC4CCCCC4)C(OC4OC(CNC5CCCCC5)C(OC5OC(CNC6CCCCC6)C(OC6OC(CNC7CCCCC7)C(OC7OC(CNC8CCCCC8)C(OC8OC(CNC9CCCCC9)C(O2)C(O)C8O)C(O)C7O)C(O)C6O)C(O)C5O)C(O)C4O)C(O)C3O)C1O (stereo not shown) | 373 µg/mL | >200 µg/mL | >200 µg/mL
7 | COc1cccc(CNCC2OC3OC4C(CNCc5cccc(OC)c5)OC(OC5C(CNCc6cccc(OC)c6)OC(OC6C(CNCc7cccc(OC)c7)OC(OC7C(CNCc8cccc(OC)c8)OC(OC8C(CNCc9cccc(OC)c9)OC(OC9C(CNCc%10cccc(OC)c%10)OC(OC2C(O)C3O)C(O)C9O)C(O)C8O)C(O)C7O)C(O)C6O)C(O)C5O)C(O)C4O)c1 (stereo not shown) | 282 µg/mL | >200 µg/mL | 
8 | COc1ccccc1CNCC1OC2OC3C(CNCc4ccccc4OC)OC(OC4C(CNCc5ccccc5OC)OC(OC5C(CNCc6ccccc6OC)OC(OC6C(CNCc7ccccc7OC)OC(OC7C(CNCc8ccccc8OC)OC(OC8C(CNCc9ccccc9OC)OC(OC1C(O)C2O)C(O)C8O)C(O)C7O)C(O)C6O)C(O)C5O)C(O)C4O)C(O)C3O (stereo not shown) | 297 µg/mL | >200 µg/mL | 
